Test results published in US11254663B2 (BRISTOL-MYERS SQUIBB COMPANY, priority 2019, dated 2022).

target: FXR (Homo sapiens (Human), UniProt Q96RI1); assay: transient human FXR/Gal4-luciferase reporter assay; format: cell-based; settings: not given
Outline: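 Compound exposure ran overnight at 37 °C and activity was measured as luminescence with Steady-Glo reagent. The cells were a HEK293 line stably expressing firefly luciferase under five Gal4 response elements. They were transiently transfected, one night beforehand, with a plasmid encoding Gal4 DNA-binding domain fused to the human FXR ligand-binding domain.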

Chain of FXR (Q96RI1 262-486): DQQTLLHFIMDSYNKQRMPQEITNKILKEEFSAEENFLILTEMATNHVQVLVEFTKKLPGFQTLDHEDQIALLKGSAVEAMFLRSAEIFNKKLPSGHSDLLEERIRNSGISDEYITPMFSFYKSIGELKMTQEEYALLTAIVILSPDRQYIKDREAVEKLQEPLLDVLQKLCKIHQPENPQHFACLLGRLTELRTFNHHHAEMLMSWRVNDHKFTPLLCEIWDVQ

| Structure (SMILES) | EC50 [nM] |
| --- | --- |
| COc1ncc(-c2cccc(N(CC34CCC(c5ccc(C(F)(F)F)cn5)(CC3)CC4)C(=O)C34CC(F)(C3)C4)c2)cn1 [Example 494, 3-fluoro-N-(3-(2-methoxypyrimidin-5-yl)phenyl)-N-((4-(5-(trifluoromethyl)pyridin-2-yl)bicyclo[2.2.2]octan-1-yl)methyl)bicyclo[1.1.1]pentane-1-carboxamide] | 516 |
| Cc1nc2ccc(-c3cccc(N(CC45CCC(c6nc(C(F)F)no6)(CC4)CC5)C(=O)C45CC(F)(C4)C5)c3)cc2s1 [Example 471, N-((4-(3-(difluoromethyl)-1,2,4-oxadiazol-5-yl)bicyclo[2.2.2]octan-1-yl)methyl)-3-fluoro-N-(3-(2-methylbenzo[d]thiazol-6-yl)phenyl)bicyclo[1.1.1]pentane-1-carboxamide] | 135 |
| O=C(N(CC12CCC(c3ccc(C(F)(F)F)cn3)(CC1)CC2)c1cccc(-c2cnc(C3CC3)nc2)c1)C12CC(F)(C1)C2 [Example 490, N-(3-(2-cyclopropylpyrimidin-5-yl)phenyl)-3-fluoro-N-((4-(5-(trifluoromethyl)pyridin-2-yl)bicyclo[2.2.2]octan-1-yl)methyl)bicyclo[1.1.1]pentane-1-carboxamide] | 334 |
| CCOc1cnc(-c2cccc(N(CC34CCC(c5ccc(C(F)(F)F)cn5)(CC3)CC4)C(=O)C34CC(F)(C3)C4)c2)nc1 [Example 498, N-(3-(5-ethoxypyrimidin-2-yl)phenyl)-3-fluoro-N-((4-(5-(trifluoromethyl)pyridin-2-yl)bicyclo[2.2.2]octan-1-yl)methyl)bicyclo[1.1.1]pentane-1-carboxamide] | 524 |
| O=C(N(CC12CCC(c3ccc(C(F)(F)F)cn3)(CC1)CC2)c1cccc(-c2cnc(C(F)(F)F)nc2)c1)C12CC(F)(C1)C2 [Example 491, 3-fluoro-N-((4-(5-(trifluoromethyl)pyridin-2-yl)bicyclo[2.2.2]octan-1-yl)methyl)-N-(3-(2-(trifluoromethyl)pyrimidin-5-yl)phenyl)bicyclo[1.1.1]pentane-1-carboxamide] | 1630 |
| Cc1nc2ccc(-c3cccc(N(CC45CCC(c6nc(C7CC7)no6)(CC4)CC5)C(=O)C45CC(F)(C4)C5)c3)cc2s1 [Example 555, N-((4-(3-cyclopropyl-1,2,4-oxadiazol-5-yl)bicyclo[2.2.2]octan-1-yl)methyl)-3-fluoro-N-(3-(2-methylbenzo[d]thiazol-6-yl)phenyl)bicyclo[1.1.1]pentane-1-carboxamide] | 55 |

same assay, conditions: Gal4-hFXR fusion construct, HEK293 reporter cells; response relative to 8 μM GW-4064

| Structure (SMILES) | EC50 [nM] |
| --- | --- |
| CC(C)(C)c1nc(C23CCC(CN(C(=O)C45CC(F)(C4)C5)c4cccc(-c5cnc(C6CC6)nc5)c4)(CC2)CC3)no1 [Example 442, N-((4-(5-(tert-butyl)-1,2,4-oxadiazol-3-yl)bicyclo[2.2.2]octan-1-yl)methyl)-N-(3-(2-cyclopropylpyrimidin-5-yl)phenyl)-3-fluorobicyclo[1.1.1]pentane-1-carboxamide] | 71 |
| O=C(N(CC12CCC(c3nc(C4CC4)no3)(CC1)CC2)c1cccc(-c2ccc3nncn3c2)c1)C12CC(F)(C1)C2 [Example 323, N-(3-([1,2,4]triazolo[4,3-a]pyridin-6-yl)phenyl)-N-((4-(3-cyclopropyl-1,2,4-oxadiazol-5-yl)bicyclo[2.2.2]octan-1-yl)methyl)-3-fluorobicyclo[1.1.1]pentane-1-carboxamide] | 1630 |
| O=C(N(CC12CCC(c3nc(C4CC4)no3)(CC1)CC2)c1cccc(-c2ccc(C(F)(F)F)cc2)c1)C12CC(F)(C1)C2 [Example 253, N-((4-(3-cyclopropyl-1,2,4-oxadiazol-5-yl)bicyclo[2.2.2]octan-1-yl)methyl)-3-fluoro-N-(4′-(trifluoromethyl)-[1,1′-biphenyl]-3-yl)bicyclo[1.1.1]pentane-1-carboxamide] | 250 |
| CC(C)(F)c1nc(C23CCC(CN(C(=O)OC4CCC(F)(F)CC4)c4cc(-c5ccc(OC(F)F)cc5)c(F)cn4)(CC2)CC3)no1 [Example 631, 4,4-difluorocyclohexyl (4-(4-(difluoromethoxy)phenyl)-5-fluoropyridin-2-yl) ((4-(5-(2-fluoropropan-2-yl)-1,2,4-oxadiazol-3-yl)bicyclo[2.2.2]octan-1-yl)methyl) carbamate] | 117 |
| Cc1nc2ccc(-c3cccc(N(CC45CCC(c6nc(C7CC7)no6)(CC4)CC5)C(=O)C45CC(F)(C4)C5)c3)cn2n1 [Example 324, N-((4-(3-cyclopropyl-1,2,4-oxadiazol-5-yl)bicyclo[2.2.2]octan-1-yl)methyl)-3-fluoro-N-(3-(2-methyl-[1,2,4]triazolo[1,5-a]pyridin-6-yl)phenyl)bicyclo[1.1.1]pentane-1-carboxamide] | 250 |
| CC(C)(O)c1ccc(-c2nccc(N(CC34CCC(c5noc(C(C)(C)F)n5)(CC3)CC4)C(=O)OC(C)(C)C(F)(F)F)n2)cc1 [Example 635, 1,1,1-trifluoro-2-methylpropan-2-yl ((4-(5-(2-fluoropropan-2-yl)-1,2,4-oxadiazol-3-yl)bicyclo[2.2.2]octan-1-yl)methyl)(2-(4-(2-hydroxypropan-2-yl)phenyl)pyrimidin-4-yl) carbamate] | 1280 |
| CC(C)(C)c1nc(C23CCC(CN(C(=O)C45CC(F)(C4)C5)c4cccc(-c5ccc(NS(=O)(=O)C(F)(F)F)cc5)c4)(CC2)CC3)no1 [Example 446, N-((4-(5-(tert-butyl)-1,2,4-oxadiazol-3-yl)bicyclo[2.2.2]octan-1-yl)methyl)-3-fluoro-N-(4′-((trifluoromethyl)sulfonamido)-[1,1′-biphenyl]-3-yl)bicyclo[1.1.1]pentane-1-carboxamide] | 225 |
| COc1cc(-c2cccc(N(CC34CCC(c5nnc(C)s5)(CC3)CC4)C(=O)C3CCCC3)c2)ccn1 [Example 233, N-(3-(2-methoxypyridin-4-yl)phenyl)-N-((4-(5-methyl-1,3,4-thiadiazol-2-yl)bicyclo[2.2.2]octan-1-yl)methyl)cyclopentanecarboxamide] | 1100 |
| NS(=O)(=O)c1cccc(-c2cccc(N(CC34CCC(c5nc(C6CC6)no5)(CC3)CC4)C(=O)C34CC(F)(C3)C4)c2)c1 [Example 257, N-((4-(3-cyclopropyl-1,2,4-oxadiazol-5-yl)bicyclo[2.2.2]octan-1-yl)methyl)-3-fluoro-N-(3′-sulfamoyl-[1,1′-biphenyl]-3-yl)bicyclo[1.1.1]pentane-1-carboxamide] | 521 |
| CC(C)(C#N)Oc1ccc(-c2ccnc(N(CC34CCC(c5noc(C6(F)CC6)n5)(CC3)CC4)C(=O)OC(C)(C)C(F)(F)F)c2)cc1 [Example 625, 1,1,1-trifluoro-2-methylpropan-2-yl(4-(4-((2-cyanopropan-2-yl)oxy)phenyl)pyridin-2-yl) ((4-(5-(1-fluorocyclopropyl)-1,2,4-oxadiazol-3-yl)bicyclo[2.2.2]octan-1-yl)methyl) carbamate] | 18 |
| CCOc1ncc(-c2cccc(N(CC34CCC(c5noc(C(C)(C)C)n5)(CC3)CC4)C(=O)C34CC(F)(C3)C4)c2)cn1 [Example 437, N-((4-(5-(tert-butyl)-1,2,4-oxadiazol-3-yl)bicyclo[2.2.2]octan-1-yl)methyl)-N-(3-(2-ethoxypyrimidin-5-yl)phenyl)-3-fluorobicyclo[1.1.1]pentane-1-carboxamide] | 39 |
| O=C(N(CC12CCC(c3nc(C(F)F)no3)(CC1)CC2)c1cccc(-c2cnc(C3CC3)nc2)c1)C12CC(F)(C1)C2 [Example 466, N-(3-(2-cyclopropylpyrimidin-5-yl)phenyl)-N-((4-(3-(difluoromethyl)-1,2,4-oxadiazol-5-yl)bicyclo[2.2.2]octan-1-yl)methyl)-3-fluorobicyclo[1.1.1]pentane-1-carboxamide] | 349 |
| CCOc1ncc(-c2ccnc(N(CC34CCC(c5noc(C(C)(C)C)n5)(CC3)CC4)C(=O)C34CC(F)(C3)C4)c2)cn1 [Example 531, N-((4-(5-(tert-butyl)-1,2,4-oxadiazol-3-yl)bicyclo[2.2.2]octan-1-yl)methyl)-N-(4-(2-ethoxypyrimidin-5-yl)pyridin-2-yl)-3-fluorobicyclo[1.1.1]pentane-1-carboxamide] | 159 |
| CC(C)(O)c1ccc(-c2ccnc(N(CC34CCC(c5noc(C(C)(F)F)n5)(CC3)CC4)C(=O)OC(C)(C)C(F)(F)F)c2)cc1 [Example 609, 1,1,1-trifluoro-2-methylpropan-2-yl((4-(5-(1,1-difluoroethyl)-1,2,4-oxadiazol-3-yl)bicyclo[2.2.2]octan-1-yl)methyl)(4-(4-(2-hydroxypropan-2-yl)phenyl)pyridin-2-yl)carbamate] | 30 |
| CC(C)c1noc(C23CCC(CN(C(=O)C45CC(F)(C4)C5)c4cccc(-c5ccc6c(c5)OC(F)(F)O6)c4)(CC2)CC3)n1 [Example 386, N-(3-(2,2-difluorobenzo[d][1,3]dioxol-5-yl)phenyl)-3-fluoro-N-((4-(3-isopropyl-1,2,4-oxadiazol-5-yl)bicyclo[2.2.2]octan-1-yl)methyl)bicyclo[1.1.1]pentane-1-carboxamide] | 274 |
| CC(C)(O)c1ccc(-c2cc(N(CC34CCC(c5nc(C6CC6)no5)(CC3)CC4)C(=O)OC(C)(C)C(F)(F)F)ncc2F)cc1F [Example 618, 1,1,1-trifluoro-2-methylpropan-2-yl((4-(3-cyclopropyl-1,2,4-oxadiazol-5-yl)bicyclo[2.2.2]octan-1-yl)methyl)(5-fluoro-4-(3-fluoro-4-(2-hydroxypropan-2-yl)phenyl)pyridin-2-yl) carbamate] | 49 |
| COc1ccc(-c2cccc(N(CC34CCC(c5ccc(C6(C#N)CC6)cc5)(CC3)OC4)C(=O)C34CC(F)(C3)C4)c2)cn1 [Example 350, N-((1-(4-(1-cyanocyclopropyl)phenyl)-2-oxabicyclo[2.2.2]octan-4-yl)methyl)-3-fluoro-N-(3-(6-methoxypyridin-3-yl)phenyl)bicyclo[1.1.1]pentane-1-carboxamide] | 296 |
